Among the data in patent US11634447B2 (priority 2012, dated 2023) are IC50 values, retold here.

Molecules are shown by their SMILES.

The test has as its system bacterial strain LF82 binding to the glycoprotein BSA-(Mannose)3. Kind of test: Bacterial Binding Assay (BBA). The test is classed as cell-based, Escherichia coli. Particulars: read-out: Bacterial Binding Assay IC50, LF82/Luciferase strain binding to BSA-(Man)3 coated plates, luminescence. Summed up: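 Inhibition of LF82/luciferase E. coli adhesion is read as luminescence after washing off unbound cells. Compound and bacteria (10^7 per well) are co-incubated 40-75 min at room temperature on wells coated with 0.5-2 μg/mL BSA-(Man)3, with BSA-only wells as background; IC50 values derived.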
Turning to `Cc1cc(-c2ccc(-c3ccc([C@H]4O[C@H](CO)[C@@H](O)[C@H](O)[C@@H]4O)c(C)c3)nc2)ccc1[C@H]1O[C@H](CO)[C@@H](O)[C@H](O)[C@@H]1O` [Compound 157, (2R,3S,4R,5S,6R)-2-(hydroxymethyl)-6-[2-methyl-4-[6-[3-methyl-4-[(2R,3S,4R,5S,6R)-3,4,5-trihydroxy-6-(hydroxymethyl)tetrahydropyran-2-yl]phenyl]-3-pyridyl]phenyl]tetrahydropyran-3,4,5-triol], the IC50 was found to be 10 nM.
Consider `OC[C@H]1O[C@H](C#Cc2ccc(C#C[C@H]3O[C@H](CO)[C@@H](O)[C@H](O)[C@@H]3O)c(OCc3ccccc3)c2)[C@@H](O)[C@@H](O)[C@@H]1O` [Compound 80, (2R,3S,4R,5S,6R)-2-[2-[3-benzyloxy-4-[2-[(2R,3S,4R,5S,6R)-3,4,5-trihydroxy-6-(hydroxymethyl)tetrahydropyran-2-yl]ethynyl]phenyl]ethynyl]-6-(hydroxymethyl)tetrahydropyran-3,4,5-triol], for which the IC50 is 11 nM.
Consider `OC[C@H]1O[C@H](C#Cc2ccc(C#C[C@H]3O[C@H](CO)[C@@H](O)[C@H](O)[C@@H]3O)c(F)c2)[C@@H](O)[C@@H](O)[C@@H]1O` [Compound 105, (2R,3S,4R,5S,6R)-2-[2-[3-fluoro-4-[2-[(2R,3S,4R,5S,6R)-3,4,5-trihydroxy-6-(hydroxymethyl)tetrahydropyran-2-yl]ethynyl]phenyl]ethynyl]-6-(hydroxymethyl)tetrahydropyran-3,4,5-triol], for which the IC50 came out at 46 nM.
`OC[C@H]1O[C@H](C#Cc2ccc(C#C[C@H]3O[C@H](CO)[C@@H](O)[C@H](O)[C@@H]3O)c3nsnc23)[C@@H](O)[C@@H](O)[C@@H]1O` [Compound 131, (2R,3S,4R,5S,6R)-2-(hydroxymethyl)-6-[2-[4-[2-[(2R,3S,4R,5S,6R)-3,4,5-trihydroxy-6-(hydroxymethyl)tetrahydropyran-2-yl]ethynyl]-2,1,3-benzothiadiazol-7-yl]ethynyl]tetrahydropyran-3,4,5-triol]: the IC50 is 128 nM.
In the case of `O=C1CCCN1CCn1c2cc(C#C[C@H]3O[C@H](CO)[C@@H](O)[C@H](O)[C@@H]3O)ccc2c2ccc(C#C[C@H]3O[C@H](CO)[C@@H](O)[C@H](O)[C@@H]3O)cc21` [Compound 190, 1-[2-[2,7-bis[2-[(2R,3S,4R,5S,6R)-3,4,5-trihydroxy-6-(hydroxymethyl)tetrahydropyran-2-yl]ethynyl]carbazol-9-yl]ethyl]pyrrolidin-2-one], the IC50 was found to be 1.1 nM.
Turning to `O=C1CC[C@@H](C(=O)c2c(C#C[C@H]3O[C@H](CO)[C@@H](O)[C@H](O)[C@@H]3O)ccc3c2C2(CCNCC2)c2cc(C#C[C@H]4O[C@H](CO)[C@@H](O)[C@H](O)[C@@H]4O)ccc2-3)N1` [Compound 244, (5S)-5-[2,7-bis[2-[(2R,3S,4R,5S,6R)-3,4,5-trihydroxy-6-(hydroxymethyl)tetrahydropyran-2-yl]ethynyl]spiro[fluorene-9,4piperidine]-1carbonyl]pyrrolidin-2-one], the IC50 worked out at 0.24 nM.
As to `OC[C@H]1O[C@H](C#Cc2ccc(C#C[C@H]3O[C@H](CO)[C@@H](O)[C@H](O)[C@@H]3O)c(C(F)(F)F)c2)[C@@H](O)[C@@H](O)[C@@H]1O` [Compound 91, (2R,3S,4R,5S,6R)-2-(hydroxymethyl)-6-[2-[3-(trifluoromethyl)-4-[2-[(2R,3S,4R,5S,6R)-3,4,5-trihydroxy-6-(hydroxymethyl)tetrahydropyran-2-yl]ethynyl]phenyl]ethynyl]tetrahydropyran-3,4,5-triol], the IC50 was 58 nM.
Turning to `CCCCc1cc(C#C[C@H]2O[C@H](CO)[C@@H](O)[C@H](O)[C@@H]2O)ccc1C#C[C@H]1O[C@H](CO)[C@@H](O)[C@H](O)[C@@H]1O` [Compound 72], the IC50 stood at 18 nM.
On to `OC[C@H]1O[C@H](C#Cc2ccc3c(c2)C(O)(CC2CCCC2)c2cc(C#C[C@H]4O[C@H](CO)[C@@H](O)[C@H](O)[C@@H]4O)ccc2-3)[C@@H](O)[C@@H](O)[C@@H]1O` (stereo partly drawn) [Compound 214, (2R,3S,4R,5S,6R)-2-[2-[9-(cyclopentylmethyl)-9-hydroxy-7-[2-[(2R,3S,4R,5S,6R)-3,4,5-trihydroxy-6-(hydroxymethyl)tetrahydropyran-2-yl]ethynyl]fluoren-2-yl]ethynyl]-6-(hydroxymethyl)tetrahydropyran-3,4,5-triol], for which the IC50 was determined as 0.45 nM.
The value for `COc1cc(C#C[C@H]2O[C@H](CO)[C@@H](O)[C@H](O)[C@@H]2O)ccc1C#C[C@H]1O[C@H](CO)[C@@H](O)[C@H](O)[C@@H]1O` [Compound 71] was 28 nM.
The value for `CC1(Cn2c3cc(C#C[C@H]4O[C@H](CO)[C@@H](O)[C@H](O)[C@@H]4O)ccc3c3ccc(C#C[C@H]4O[C@H](CO)[C@@H](O)[C@H](O)[C@@H]4O)cc32)COC1` [Compound 186] was 0.28 nM.
With `CC(=O)OCC1(COC(C)=O)c2cc(C#C[C@H]3O[C@H](CO)[C@@H](O)[C@H](O)[C@@H]3O)ccc2-c2ccc(C#C[C@H]3O[C@H](CO)[C@@H](O)[C@H](O)[C@@H]3O)cc21` [Compound 211, [9-(acetoxymethyl)-2,7-bis[2-[(2R,3S,4R,5S,6R)-3,4,5-trihydroxy-6-(hydroxymethyl)tetrahydropyran-2-yl]ethynyl]fluoren-9-yl]methyl acetate] the figure was 2.2 nM; with `CCC1(O)c2cc(C#C[C@H]3O[C@H](CO)[C@@H](O)[C@H](O)[C@@H]3O)ccc2-c2ccc(C#C[C@H]3O[C@H](CO)[C@@H](O)[C@H](O)[C@@H]3O)cc21` [Compound 166, (2R,3S,4R,5S,6R)-2-[2-[9-ethyl-9-hydroxy-7-[2-[(2R,3S,4R,5S,6R)-3,4,5-trihydroxy-6-(hydroxymethyl)tetrahydropyran-2-yl]ethynyl]fluoren-2-yl]ethynyl]-6-(hydroxymethyl)tetrahydropyran-3,4,5-triol], 3 nM.
For `OC[C@H]1O[C@H](C#Cc2ccc3c(c2)[nH]c2cc(C#C[C@H]4O[C@H](CO)[C@@H](O)[C@H](O)[C@@H]4O)ccc23)[C@@H](O)[C@@H](O)[C@@H]1O` [Compound 118, (2R,3S,4R,5S,6R)-2-(hydroxymethyl)-6-[2-[7-[2-[(2R,3S,4R,5S,6R)-3,4,5-trihydroxy-6-(hydroxymethyl)tetrahydropyran-2-yl]ethynyl]-9H-carbazol-2-yl]ethynyl]tetrahydropyran-3,4,5-triol], the IC50 was determined as 22 nM.
As to `Cc1c(C#C[C@H]2O[C@H](CO)[C@@H](O)[C@H](O)[C@@H]2O)ccc(C#C[C@H]2O[C@H](CO)[C@@H](O)[C@H](O)[C@@H]2O)c1C` [Compound 99, (2R,3S,4R,5S,6R)-2-[2-[2,3-dimethy1-4-[2-[(2R,3S,4R,5S,6R)-3,4,5-trihydroxy-6-(hydroxymethyl)tetrahydropyran-2-yl]ethynyl]phenyl]ethynyl]-6-(hydroxymethyl)tetrahydropyran-3,4,5-triol], the IC50 was 145 nM.
For the molecule `O=C(c1c(C#C[C@H]2O[C@H](CO)[C@@H](O)[C@H](O)[C@@H]2O)ccc2c1C1(CCNCC1)c1cc(C#C[C@H]3O[C@H](CO)[C@@H](O)[C@H](O)[C@@H]3O)ccc1-2)C1(O)CC1` [Compound 227, [2,7-bis[2-[(2R,3S,4R,5S,6R)-3,4,5-trihydroxy-6-(hydroxymethyl)tetrahydropyran-2-yl]ethynyl]spiro[fluorene-9,4piperidine]-1yl]-(1hydroxycyclopropyl)methanone], the IC50 worked out at 0.06 nM.
Take `OC[C@H]1O[C@H](C#Cc2ccc3c(c2)CCc2cc(C#C[C@H]4O[C@H](CO)[C@@H](O)[C@H](O)[C@@H]4O)ccc2-3)[C@@H](O)[C@@H](O)[C@@H]1O` [Compound 117, (2R,3S,4R,5S,6R)-2-(hydroxymethyl)-6-[2-[7-[2-[(2R,3S,4R,5S,6R)-3,4,5-trihydroxy-6-(hydroxymethyl)tetrahydropyran-2-yl]ethynyl]-9,10-dihydrophenanthren-2-yl]ethynyl]tetrahydropyran-3,4,5-triol]: the IC50 is 23 nM.
With `OC[C@H]1O[C@H](C#Cc2ccc3c(c2)C2(CCOCC2)c2cc(C#C[C@H]4O[C@H](CO)[C@@H](O)[C@H](O)[C@@H]4O)ccc2-3)[C@@H](O)[C@@H](O)[C@@H]1O` [Compound 162, (2R,2,3S,3,4R,4,5S,5,6R,6)-6,6((2tetrahydrospiro[fluorene-9,4pyran]-2,7-diyl)bis(ethyne-2,1-diyl))bis(2-(hydroxymethyl)tetrahydro-2H-pyran-3,4,5-triol)] the figure was 0.11 nM.
Consider `OC[C@H]1O[C@H](C#Cc2ccc(C#C[C@H]3O[C@H](CO)[C@@H](O)[C@H](O)[C@@H]3O)c3cnccc23)[C@@H](O)[C@@H](O)[C@@H]1O` [Compound 130, (2R,3S,4R,5S,6R)-2-(hydroxymethyl)-6-[2-[8-[-2-[(2R,3S,4R,5S,6R)-3,4,5-trihydroxy-6-(hydroxymethyl)tetrahydropyran-2-yl]ethynyl]-5-isoquinolyl]ethynyl]tetrahydropyran-3,4,5-triol], for which the IC50 came to 67 nM.
`OC[C@H]1O[C@H](C#Cc2ccc3oc4ccc(C#C[C@H]5O[C@H](CO)[C@@H](O)[C@H](O)[C@@H]5O)cc4c3c2)[C@@H](O)[C@@H](O)[C@@H]1O` [Compound 106, (2R,3S,4R,5S,6R)-2-(hydroxymethyl)-6-[2-[8-[2-[(2R,3S,4R,5S,6R)-3,4,5-trihydroxy-6-(hydroxymethyl)tetrahydropyran-2-yl]ethynyl]dibenzofuran-2-yl]ethynyl]tetrahydropyran-3,4,5-triol]: the IC50 was 7.9 nM.
Turning to `OC[C@H]1O[C@H](C#Cc2coc(C#C[C@H]3O[C@H](CO)[C@@H](O)[C@H](O)[C@@H]3O)n2)[C@@H](O)[C@@H](O)[C@@H]1O` [Compound 129, (2R,3S,4R,5S,6R)-2-(hydroxymethyl)-6-[2-[2-[2-[(2R,3S,4R,5S,6R)-3,4,5-trihydroxy-6-(hydroxymethyl)tetrahydropyran-2-yl]ethynyl]oxazol-4-yl]ethynyl]tetrahydropyran-3,4,5-triol], the IC50 came to 1240 nM.
